Data from patent US9238631B2, “Radiolabeled amino acids for diagnostic imaging” (PIRAMAL IMAGING SA, priority 2011, dated 2016).

Test system: NCI-H460 tumor
Test: In vivo biodistribution in NCI-H460 tumor bearing mice
Set-up: Summary: organs / Summary: Carcass / Summary: faeces: unit not given here
Conditions: for Summary: urine: in %; for Summary: Recovery: in % (unit assumed)
Method in brief: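 Biodistribution of 18F-labeled compounds was assessed in female NMRI (nu/nu) mice bearing NCI-H460 tumors, established by inoculating 5×10^6 cells 8 to 10 days beforehand. Each mouse received 185 kBq of the fluorinated tracer; at least n=3 animals per time point were sacrificed, organs excised, and radioactivity quantified with a γ-counter.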

SMILES: N[C@@H](CCC(Cc1ccc(OCC[18F])cc1)C(=O)O)C(=O)O (stereo partly drawn) [[^18F]-12] [(2S)-2-Amino-5-[4-(2-[^18F]fluoroethoxy)benzyl]hexanedioic acid]
- Summary: faeces (timepoint 1.0 h): 0.01
- Summary: organs (timepoint 1.0 h): 12.93
- Tail (% Dosis/g) (timepoint 1.0 h): 0.41 % Dosis/g
- Thyroid (% Dosis/g) (timepoint 1.0 h): 0.29 % Dosis/g
- Tumor (% Dosis/g) (timepoint 1.0 h): 6.47 % Dosis/g
- Tumor/Tissue: Adrenals (timepoint 1.0 h): 23.74
- Tumor/Tissue: Blood (timepoint 1.0 h): 33.90
- Tumor/Tissue: Bone (timepoint 1.0 h): 41.80
- Tumor/Tissue: Brain (timepoint 1.0 h): 142.1
- Tumor/Tissue: Fat (timepoint 1.0 h): 302.3
- Tumor/Tissue: Gallbladder (timepoint 1.0 h): 0.88
- Tumor/Tissue: Heart (timepoint 1.0 h): 58.14
- Tumor/Tissue: Intestine (timepoint 1.0 h): 7.45
- Tumor/Tissue: Kidney (timepoint 1.0 h): 3.12
- Tumor/Tissue: Liver (timepoint 1.0 h): 2.99
- Tumor/Tissue: Lung (timepoint 1.0 h): 18.22
- Tumor/Tissue: Muscle (timepoint 1.0 h): 103.4
- Tumor/Tissue: Ovaries (timepoint 1.0 h): 8.99
- Tumor/Tissue: Pancreas (timepoint 1.0 h): 1.82
- Tumor/Tissue: Skin (timepoint 1.0 h): 10.56
- Tumor/Tissue: Spleen (timepoint 1.0 h): 4.32
- Tumor/Tissue: Stomach (timepoint 1.0 h): 6.88
- Tumor/Tissue: Thyroid (timepoint 1.0 h): 22.49
- Tumor/Tissue: Uterus (timepoint 1.0 h): 8.25
- Uterus (% Dosis/g) (timepoint 1.0 h): 0.97 % Dosis/g
- Summary: urine (timepoint 1.0 h): 82.05
- Summary: Recovery (timepoint 1.0 h): 98.57
- Adrenals (% Dosis/g) (timepoint 2.0 h): 0.27 % Dosis/g
- Blood (% Dosis/g) (timepoint 2.0 h): 0.08 % Dosis/g
- Bone (% Dosis/g) (timepoint 2.0 h): 0.14 % Dosis/g
- Brain (% Dosis/g) (timepoint 2.0 h): 0.05 % Dosis/g
- Fat (% Dosis/g) (timepoint 2.0 h): 0.02 % Dosis/g
- Gallbladder (% Dosis/g) (timepoint 2.0 h): 8.93 % Dosis/g
- Heart (% Dosis/g) (timepoint 2.0 h): 0.06 % Dosis/g
- Intestine (% Dosis/g) (timepoint 2.0 h): 1.12 % Dosis/g
- Liver (% Dosis/g) (timepoint 2.0 h): 0.87 % Dosis/g
- Muscle (% Dosis/g) (timepoint 2.0 h): 0.05 % Dosis/g
- Ovaries (% Dosis/g) (timepoint 2.0 h): 0.54 % Dosis/g
- Pancreas (% Dosis/g) (timepoint 2.0 h): 1.48 % Dosis/g
- Skin (% Dosis/g) (timepoint 2.0 h): 0.43 % Dosis/g
- Spleen (% Dosis/g) (timepoint 2.0 h): 1.29 % Dosis/g
- Stomach (% Dosis/g) (timepoint 2.0 h): 0.46 % Dosis/g
- Summary: Carcass (timepoint 2.0 h): 5.26
- Summary: faeces (timepoint 2.0 h): 1.74
- Summary: organs (timepoint 2.0 h): 8.77
- Tail (% Dosis/g) (timepoint 2.0 h): 1.44 % Dosis/g
- Thyroid (% Dosis/g) (timepoint 2.0 h): 0.26 % Dosis/g
- Tumor (% Dosis/g) (timepoint 2.0 h): 7.21 % Dosis/g
- Tumor/Tissue: Adrenals (timepoint 2.0 h): 27.83
- Tumor/Tissue: Blood (timepoint 2.0 h): 86.51
- Tumor/Tissue: Bone (timepoint 2.0 h): 57.86
- Tumor/Tissue: Brain (timepoint 2.0 h): 161.0
- Tumor/Tissue: Fat (timepoint 2.0 h): 396.0
- Tumor/Tissue: Gallbladder (timepoint 2.0 h): 0.81
- Tumor/Tissue: Heart (timepoint 2.0 h): 126.5
- Tumor/Tissue: Intestine (timepoint 2.0 h): 6.58
- Tumor/Tissue: Kidney (timepoint 2.0 h): 11.24
- Tumor/Tissue: Liver (timepoint 2.0 h): 8.46
- Tumor/Tissue: Lung (timepoint 2.0 h): 29.67
- Tumor/Tissue: Muscle (timepoint 2.0 h): 169.9
- Tumor/Tissue: Ovaries (timepoint 2.0 h): 13.81
- Tumor/Tissue: Pancreas (timepoint 2.0 h): 4.90
- Tumor/Tissue: Skin (timepoint 2.0 h): 39.91
- Tumor/Tissue: Spleen (timepoint 2.0 h): 5.82
- Tumor/Tissue: Stomach (timepoint 2.0 h): 16.25
- Tumor/Tissue: Thyroid (timepoint 2.0 h): 35.78
- Tumor/Tissue: Uterus (timepoint 2.0 h): 15.37
- Uterus (% Dosis/g) (timepoint 2.0 h): 0.50 % Dosis/g
- Summary: urine (timepoint 2.0 h): 83.35
- Summary: Recovery (timepoint 2.0 h): 99.00
- Adrenals (% Dosis/g) (timepoint 4.0 h): 0.16 % Dosis/g
- Blood (% Dosis/g) (timepoint 4.0 h): 0.04 % Dosis/g
- Bone (% Dosis/g) (timepoint 4.0 h): 0.06 % Dosis/g
- Brain (% Dosis/g) (timepoint 4.0 h): 0.02 % Dosis/g
- Fat (% Dosis/g) (timepoint 4.0 h): 0.01 % Dosis/g
- Gallbladder (% Dosis/g) (timepoint 4.0 h): 6.45 % Dosis/g
- Heart (% Dosis/g) (timepoint 4.0 h): 0.04 % Dosis/g
- Intestine (% Dosis/g) (timepoint 4.0 h): 0.93 % Dosis/g
- Muscle (% Dosis/g) (timepoint 4.0 h): 0.03 % Dosis/g
- Ovaries (% Dosis/g) (timepoint 4.0 h): 0.24 % Dosis/g
- Pancreas (% Dosis/g) (timepoint 4.0 h): 0.27 % Dosis/g
- Skin (% Dosis/g) (timepoint 4.0 h): 0.37 % Dosis/g
- Spleen (% Dosis/g) (timepoint 4.0 h): 0.59 % Dosis/g
- Stomach (% Dosis/g) (timepoint 4.0 h): 0.21 % Dosis/g
- Summary: Carcass (timepoint 4.0 h): 1.09
- Summary: faeces (timepoint 4.0 h): 0.25
- Summary: organs (timepoint 4.0 h): 6.12
- Tail (% Dosis/g) (timepoint 4.0 h): 0.55 % Dosis/g
- Thyroid (% Dosis/g) (timepoint 4.0 h): 0.08 % Dosis/g
- Tumor (% Dosis/g) (timepoint 4.0 h): 5.17 % Dosis/g
- Tumor/Tissue: Adrenals (timepoint 4.0 h): 41.62
- Tumor/Tissue: Blood (timepoint 4.0 h): 148.1
- Tumor/Tissue: Bone (timepoint 4.0 h): 91.73
- Tumor/Tissue: Brain (timepoint 4.0 h): 237.6
- Tumor/Tissue: Fat (timepoint 4.0 h): 2513
- Tumor/Tissue: Gallbladder (timepoint 4.0 h): 1.11
- Tumor/Tissue: Heart (timepoint 4.0 h): 153.2
- Tumor/Tissue: Intestine (timepoint 4.0 h): 5.57
- Tumor/Tissue: Kidney (timepoint 4.0 h): 28.19
- Tumor/Tissue: Liver (timepoint 4.0 h): 18.60
- Tumor/Tissue: Lung (timepoint 4.0 h): 227.5
- Tumor/Tissue: Muscle (timepoint 4.0 h): 185.7
- Tumor/Tissue: Ovaries (timepoint 4.0 h): 21.39
- Tumor/Tissue: Pancreas (timepoint 4.0 h): 19.41
- Tumor/Tissue: Skin (timepoint 4.0 h): 16.05
- Tumor/Tissue: Spleen (timepoint 4.0 h): 8.58
- Tumor/Tissue: Stomach (timepoint 4.0 h): 24.28
- Tumor/Tissue: Thyroid (timepoint 4.0 h): 64.78
- Tumor/Tissue: Uterus (timepoint 4.0 h): 23.55
- Uterus (% Dosis/g) (timepoint 4.0 h): 0.21 % Dosis/g
- Summary: urine (timepoint 4.0 h): 92.66
- Summary: Recovery (timepoint 4.0 h): 100.1
